# Data as given in patent US20190029960A1, “Therapeutic Nanoparticles Having EGFR Ligands and Methods of Making and Using Same” (Pfizer Inc., priority 2016, published 2019).
# *1 amine or outer side, *2 acyl side, *3 side chain or, on linkers, in order; H or OH if unused. Where a SMILES comes first, the peptide text is derived from it. Bridges are numbered along the chain shown (N, C = ends). Side-chain parts run from the residue outwards. [ ]: non-standard residue; d: D form. The star is where a group is joined. Trp(5-OMe) = COc1ccc2[nH]cc(C[C@H](N)C(=O)O)c2c1; DBCO = C1#Cc2ccccc2N(*)Cc2ccccc21; Igl = N[C@H](C(=O)O)C1Cc2ccccc2C1; PEG5 = NCCOCCOCCOCCOCCOCCC(=O)O; Suc = O=C(CCC(=O)[*:2])[*:1]; Pra = C#CC[C@H](N)C(=O)O; Acm = CC(=O)NC*
# Biological target: T1, Fc tagged recombinant human EGFR (rhEGFR-Fc) (Homo sapiens, UniProt P00533)
# T1 construct: purchased R&D Systems 344-ER-050
# T1 sequence (P00533 with tags, fused parts or gaps limits assumed): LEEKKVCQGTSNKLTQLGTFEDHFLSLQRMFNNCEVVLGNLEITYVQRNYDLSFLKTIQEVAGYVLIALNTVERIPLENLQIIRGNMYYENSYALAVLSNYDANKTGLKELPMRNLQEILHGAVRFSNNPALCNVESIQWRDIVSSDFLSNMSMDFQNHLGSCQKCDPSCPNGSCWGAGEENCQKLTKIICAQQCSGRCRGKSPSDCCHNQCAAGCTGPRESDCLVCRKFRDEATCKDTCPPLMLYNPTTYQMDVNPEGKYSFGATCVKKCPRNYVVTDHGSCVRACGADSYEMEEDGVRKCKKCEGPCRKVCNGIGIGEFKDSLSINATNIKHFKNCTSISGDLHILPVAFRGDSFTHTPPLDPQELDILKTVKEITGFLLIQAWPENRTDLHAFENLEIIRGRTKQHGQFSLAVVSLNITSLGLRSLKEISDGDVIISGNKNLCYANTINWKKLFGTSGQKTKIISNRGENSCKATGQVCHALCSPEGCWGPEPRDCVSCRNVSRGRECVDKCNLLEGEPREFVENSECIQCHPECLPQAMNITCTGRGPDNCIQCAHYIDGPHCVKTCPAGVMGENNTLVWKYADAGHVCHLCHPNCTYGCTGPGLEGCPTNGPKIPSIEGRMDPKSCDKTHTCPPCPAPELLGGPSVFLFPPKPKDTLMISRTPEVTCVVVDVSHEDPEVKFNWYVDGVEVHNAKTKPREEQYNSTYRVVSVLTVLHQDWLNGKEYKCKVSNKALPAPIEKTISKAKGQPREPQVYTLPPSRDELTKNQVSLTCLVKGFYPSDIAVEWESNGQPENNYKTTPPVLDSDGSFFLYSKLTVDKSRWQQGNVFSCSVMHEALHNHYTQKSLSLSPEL
# Format: binding
# Details: not given
# Description: Surface plasmon resonance (SPR) binding studies were carried out on a Biacore T200 instrument (GE Healthcare). Approximately 10,000 RU of anti-Fc antibody (GE Healthcare, Cat #BR100839) was immobilized via amine coupling on each of flow cells 1 and 2 of a CM5 dextran-coated gold sensor chip (GE Healthcare, Cat #BR100530). […] The contact time and resulting amount of rhEGFR-Fc capture was varied based on the nature of the analyte, namely whether it was a peptide or nanoparticle.
# Peptide binding assays were carried out in 10 mM PBS buffer supplemented with 0.05% surfactant P20 and 5% DMSO by volume, at 25° C. Peptides were injected over the rhEGFR-Fc surface for 60 s, followed by dissociation (buffer injection) for 60 s and regeneration with a 10 s pulse of 3M MgCl2. A fresh rhEGFR-Fc surface was generated for each concentration of each peptide tested. Peptide binding data was analyzed by fitting to a 1:1 Langmuir kinetic model to obtain the on-rate (ka), off-rate (kd) and/or equilibrium binding constant (KD) of the interaction.
row,SMILES,"binding of free peptide to EGFR by SPR, in words"
1,CC(=O)N[C@@H](CC(=O)O)C(=O)N[C@@H](C)C(=O)N[C@H]1CSSC[C@@H](C(=O)N[C@@H](CC(C)C)C(=O)N[C@@H](CCC(N)=O)C(=O)NCC(=O)NCC(=O)N[C@@H](CCCCNC(=O)CCOCCOCCOCCOCCOCCNC(=O)CCC(=O)N2Cc3ccccc3C#Cc3ccccc32)C(N)=O)NC(=O)[C@H](CCC(=O)O)NC(=O)[C@H](CCCNC(=N)N)NC(=O)CNC(=O)[C@H](Cc2c[nH]c3ccccc23)NC(=O)[C@H](C(C)C)NC(=O)[C@H](CCC(=O)O)NC(=O)[C@H](Cc2c[nH]c3ccccc23)NC(=O)[C@H]([C@@H](C)O)NC1=O [Peptide P2-2],improved affinity relative to the parent peptide
2,CC(=O)N[C@@H](CC(=O)O)C(=O)N1CCC[C@H]1C(=O)N[C@@H]1C(=O)N[C@@H]([C@@H](C)O)C(=O)N[C@@H](Cc2c[nH]c3ccccc23)C(=O)N[C@@H](CCC(=O)O)C(=O)N[C@@H](C(C)C)C(=O)N[C@@H](Cc2c[nH]c3ccccc23)C(=O)NCC(=O)N[C@@H](CCCNC(=N)N)C(=O)N[C@@H](CCC(=O)O)C(=O)N[C@H](C(=O)N[C@@H](CC(C)C)C(=O)N[C@@H](CCC(N)=O)C(=O)NCC(=O)NCC(=O)N[C@@H](CCCCNC(=O)CCOCCOCCOCCOCCOCCNC(=O)CCC(=O)N2Cc3ccccc3C#Cc3ccccc32)C(N)=O)C(C)(C)SSC1(C)C [Peptide P2-55],improved affinity relative to the parent peptide
3,COc1ccc2[nH]cc(C[C@@H]3NC(=O)[C@H](C(C)C)NC(=O)[C@H](CCC(=O)O)NC(=O)[C@H](C4Cc5ccccc5C4)NC(=O)[C@H]([C@@H](C)O)NC(=O)[C@@H](NC(=O)[C@@H]4CCCN4C(=O)[C@H](CC(=O)O)NC(C)=O)CSSC[C@@H](C(=O)N[C@@H](CC(C)C)C(=O)N[C@@H](CCC(N)=O)C(=O)NCC(=O)NCC(=O)N[C@@H](CCCCNC(=O)CCOCCOCCOCCOCCOCCNC(=O)CCC(=O)N4Cc5ccccc5C#Cc5ccccc54)C(N)=O)NC(=O)[C@H](CCC(=O)O)NC(=O)[C@H](CCCNC(=N)N)NC(=O)CNC3=O)c2c1 [Peptide P2-102] (Ac-DPCT[Igl]EV[Trp(5-OMe)]GRECLQGGK([PEG5-Suc-DBCO])-NH2; disulfide 3-12),improved affinity relative to the parent peptide

# Same assay, conditions: Table 6, TGF fragments
row,SMILES,KD
1,C#CC[C@H](NC(=O)CN)C(=O)NCC(=O)NCC(=O)N[C@@H](C)C(=O)N[C@@H](CC(=O)O)C(=O)N[C@@H](CC(C)C)C(=O)N[C@@H](CC(C)C)C(=O)N[C@@H](C)C(=O)N[C@H](C(=O)N[C@H](C(=O)N[C@@H](C)C(=O)N[C@@H](C)C(N)=O)C(C)C)C(C)C [TGFf-4] (H-G[Pra]GGADLLAVVAA-NH2),No binding
2,C#CC[C@H](NC(=O)CN)C(=O)NCC(=O)NCC(=O)N[C@@H](C)C(=O)N[C@@H](CCCNC(=N)N)C(=O)N[C@@H](CS)C(=O)N[C@@H](CCC(=O)O)C(=O)N[C@@H](Cc1c[nH]cn1)C(=O)N[C@@H](C)C(=O)N[C@@H](CC(=O)O)C(=O)N[C@@H](C)C(=O)N[C@@H](CC(=O)O)C(=O)N[C@@H](CC(C)C)C(N)=O [TGFf-5] (H-G[Pra]GGARCEHADADL-NH2),No binding
3,C#CC[C@H](NC(=O)CN)C(=O)NCC(=O)NCC(=O)N[C@@H](CO)C(=O)NCC(=O)N[C@@H](Cc1ccc(O)cc1)C(=O)N[C@H](C(=O)NCC(=O)N[C@@H](C)C(=O)N[C@@H](CCCNC(=N)N)C(=O)N[C@@H](CS)C(=O)N[C@@H](CCC(=O)O)C(=O)N[C@@H](Cc1c[nH]cn1)C(N)=O)C(C)C [TGFf-6] (H-G[Pra]GGSGYVGARCEH-NH2),No binding
4,C#CC[C@H](NC(=O)CN)C(=O)NCC(=O)NCC(=O)N[C@@H](C)C(=O)N[C@@H](CSCNC(C)=O)C(=O)N[C@H](C(=O)N[C@@H](CS)C(=O)N[C@@H](Cc1c[nH]cn1)C(=O)N[C@@H](CO)C(=O)NCC(=O)N[C@@H](Cc1ccc(O)cc1)C(=O)N[C@H](C(=O)NCC(N)=O)C(C)C)C(C)C [TGFf-7] (H-G[Pra]GGAC(Acm)VCHSGYVG-NH2),No binding
5,"C#CC[C@H](NC(=O)CN)C(=O)NCC(=O)NCC(=O)N[C@@H](CCC(N)=O)C(=O)N[C@@H](CCC(=O)O)C(=O)N[C@@H](CC(=O)O)C(=O)N[C@@H](CCCCN)C(=O)N1CCC[C@H]1C(=O)N[C@@H](C)C(=O)N[C@@H](CSCNC(C)=O)C(=O)N[C@H](C(=O)N[C@@H](CS)C(=O)N[C@@H](Cc1c[nH]cn1)C(N)=O)C(C)C [TGFf-8, H2N-G-Par-GG-QEDKPAC(Acm)VCH-CONH2] (H-G[Pra]GGQEDKPAC(Acm)VCH-NH2)",No binding
6,C#CC[C@H](NC(=O)CN)C(=O)NCC(=O)NCC(=O)N[C@@H](CS)C(=O)N[C@@H](CCCNC(=N)N)C(=O)N[C@@H](Cc1ccccc1)C(=O)N[C@@H](CC(C)C)C(=O)N[C@H](C(=O)N[C@@H](CCC(N)=O)C(=O)N[C@@H](CCC(=O)O)C(=O)N[C@@H](CC(=O)O)C(=O)N[C@@H](CCCCN)C(=O)N1CCC[C@H]1C(N)=O)C(C)C [TGFf-9] (H-G[Pra]GGCRFLVQEDKP-NH2),No binding
7,C#CC[C@H](NC(=O)CN)C(=O)NCC(=O)NCC(=O)N[C@@H](CSCNC(C)=O)C(=O)N[C@@H](Cc1ccccc1)C(=O)N[C@@H](Cc1c[nH]cn1)C(=O)NCC(=O)N[C@H](C(=O)N[C@@H](CS)C(=O)N[C@@H](CCCNC(=N)N)C(=O)N[C@@H](Cc1ccccc1)C(=O)N[C@H](C(N)=O)C(C)C)[C@@H](C)O [TGFf-10] (H-G[Pra]GGC(Acm)FHGTCRFV-NH2),No binding
8,C#CC[C@H](NC(=O)CN)C(=O)NCC(=O)NCC(=O)N[C@@H](CO)C(=O)N[C@@H](Cc1c[nH]cn1)C(=O)N[C@H](C(=O)N[C@@H](CCC(N)=O)C(=O)N[C@@H](Cc1ccccc1)C(=O)N[C@@H](CS)C(=O)N[C@@H](Cc1ccccc1)C(=O)N[C@@H](Cc1c[nH]cn1)C(=O)NCC(=O)N[C@H](C(N)=O)[C@@H](C)O)[C@@H](C)O [TGFf-11] (H-G[Pra]GGSHTQFCFHGT-NH2),No binding
9,C#CC[C@H](NC(=O)CN)C(=O)NCC(=O)NCC(=O)N[C@@H](CC(N)=O)C(=O)N[C@@H](CC(=O)O)C(=O)N[C@@H](CS)C(=O)N1CCC[C@H]1C(=O)N[C@@H](CC(=O)O)C(=O)N[C@@H](CO)C(=O)N[C@@H](Cc1c[nH]cn1)C(=O)N[C@H](C(=O)N[C@@H](CCC(N)=O)C(=O)N[C@@H](Cc1ccccc1)C(N)=O)[C@@H](C)O [TGFf-12] (H-G[Pra]GGNDCPDSHTQF-NH2),No binding
10,C#CC[C@H](NC(=O)CN)C(=O)NCC(=O)NCC(=O)N[C@@H](Cc1c[nH]c2ccccc12)C(=O)N[C@@H](CO)C(=O)N[C@@H](Cc1c[nH]cn1)C(=O)N[C@@H](Cc1ccccc1)C(=O)N[C@@H](CC(N)=O)C(=O)N[C@@H](CC(=O)O)C(=O)N[C@@H](CS)C(=O)N1CCC[C@H]1C(=O)N[C@@H](CC(=O)O)C(N)=O [TGFf-13] (H-G[Pra]GGWSHFNDCPD-NH2),No binding

# Same assay, conditions: Table 13, point mutations
row,SMILES,KD/P2 KD
1,C#CC[C@H](NC(=O)CNC(=O)CNC(=O)[C@H](CCC(N)=O)NC(=O)[C@H](CC(C)C)NC(=O)[C@@H]1CSSC[C@H](NC(=O)[C@@H]2CCCN2C(=O)[C@@H](N)CC(=O)O)C(=O)N[C@@H]([C@@H](C)O)C(=O)N[C@@H](Cc2ccccc2)C(=O)N[C@@H](CCC(=O)O)C(=O)N[C@@H](C(C)C)C(=O)N[C@@H](Cc2c[nH]c3ccccc23)C(=O)NCC(=O)N[C@@H](CCCNC(=N)N)C(=O)N[C@@H](CCC(=O)O)C(=O)N1)C(=O)NCC(N)=O [Peptide P2-29] (H-DPCTFEVWGRECLQGG[Pra]G-NH2; disulfide 3-12),9.24

# Same assay, conditions: Table 14; relative affinity compared to KD of parent P2 (FIG. 16)
row,SMILES,Result
1,CC(=O)N[C@@H](CC(=O)O)C(=O)N1CCC[C@H]1C(=O)N[C@@H]1C(=O)N[C@@H]([C@@H](C)O)C(=O)N[C@@H](Cc2c[nH]c3ccccc23)C(=O)N[C@@H](CCC(=O)O)C(=O)N[C@@H](C(C)C)C(=O)N[C@@H](Cc2c[nH]c3ccccc23)C(=O)NCC(=O)N[C@@H](CCCNC(=N)N)C(=O)N[C@@H](CCC(=O)O)C(=O)N[C@H](C(=O)N[C@@H](CC(C)C)C(=O)N[C@@H](CCC(N)=O)C(=O)NCC(=O)NCC(=O)N[C@@H](CCCCNC(=O)CCOCCOCCOCCOCCOCCNC(=O)CCC(=O)N2Cc3ccccc3C#Cc3ccccc32)C(N)=O)C(C)(C)SSC1(C)C [Peptide P2-55],1.18
